This is an account of results in US7906656B2, “Iodopyrazolyl carboxanilides” (Bayer CropScience AG, priority 2003, dated 2011).

Tested on in the first series: not listed separately
The series can be described thus: log P determination by HPLC on reversed-phase column (EEC directive 79/831 Annex V.A8). The series is classed as physicochemical. The note with it: pH 2.3; HPLC reversed-phase C18, 43° C. The procedure: The given log P values were determined in accordance with EEC directive 79/831 Annex V.A8 by HPLC (High Performance Liquid Chromatography) on a reversed-phase column (C18). Temperature: 43° C. Mobile phases for the determination in the acidic range (pH 2.3): 0.1% aqueous phosphoric acid, acetonitrile; linear gradient from 10% acetonitrile to 90% acetonitrile. Calibration was carried out using unbranched alkan-2-ones (having 3 to 16 carbon atoms) with known log P values (determination of the log P values by the retention times using linear interpolation between two successive alkanones).
As usually defined, the logP is a log measure of how a compound divides between an organic and an aqueous phase. The compound `CC(CC(C)(C)C)c1ccccc1NC(=O)c1cn(C)nc1I` (stereo not drawn) [Compound 1] showed a lipophilicity (logP) of 3.64.

As to `Cn1cc(C(=O)Nc2ccccc2-c2ccc(Cl)c(Cl)c2)c(I)n1` [Compound 2], the lipophilicity (logP) stood at 3.38.

`Cn1cc(C(=O)Nc2ccccc2-c2ccc(Cl)c(F)c2)c(I)n1` [Compound 3]: the lipophilicity (logP) amounted to 3.09.

For the compound `CC(C)CC(C)c1ccccc1NC(=O)c1cn(C)nc1I` (stereo not drawn) [Compound 4], the logP stood at 3.36.

For `CCCON=Cc1ccc(-c2ccccc2NC(=O)c2cn(C)nc2I)cc1F` [Compound 5], the log partition coefficient (logP) is reported as 4.00.

`Cc1ccc(-c2ccccc2NC(=O)c2cn(C)nc2I)cc1F` [Compound 7] registered a log partition coefficient (logP) of 3.18.

`Cn1cc(C(=O)Nc2ccccc2-c2ccc(F)c(Cl)c2)c(I)n1` [Compound 8] gave a logP of 3.09.

As to `Cn1cc(C(=O)Nc2ccccc2-c2ccc(Br)cc2)c(I)n1` [Compound 9], the lipophilicity (logP) is 3.20.

`Cn1cc(C(=O)Nc2ccccc2-c2ccc(C(F)(F)F)cc2)c(I)n1` [Compound 10] displayed a lipophilicity (logP) of 3.24.

Compound `Cn1cc(C(=O)Nc2ccccc2-c2ccc(C(F)(F)F)c(F)c2)c(I)n1` [Compound 11] gave a logP of 3.23.

On to `CC(=CC(C)C)c1ccccc1NC(=O)c1cn(C)nc1I` [Compound 12], for which the logP turned out to be 3.62.

With `C=C(C)CC(C)(O)c1ccccc1NC(=O)c1cn(C)nc1I` (stereo not drawn) [Compound 13], the lipophilicity (logP) was determined as 2.54.

As to `Cn1cc(C(=O)Nc2ccccc2-c2ccc(Cl)cc2)c(I)n1` [Compound 14], the lipophilicity (logP) was determined as 3.08.

As for `CC(CC1CC1)c1ccccc1NC(=O)c1cn(C)nc1I` (stereo not drawn) [Compound 15], the logP came to 3.08.

The compound `Cn1cc(C(=O)Nc2ccccc2-c2ccc(I)cc2)c(I)n1` [Compound 16] registered a logP of 3.36.

As to `Cn1cc(C(=O)Nc2ccccc2-c2cccc(Cl)c2F)c(I)n1` [Compound 17], the logP is given as 2.99.

For `Cn1cc(C(=O)Nc2ccccc2CCC(C)(C)C)c(I)n1` [Compound 18], the logP is 3.34.

On to `CC1CC(C)(C)c2cccc(NC(=O)c3cn(C)nc3I)c21` (stereo not drawn) [Compound 19], for which the logP worked out at 3.27.

Consider `CC(C)CC(C)c1cc(F)ccc1NC(=O)c1cn(C)nc1I` (stereo not drawn) [Compound 20], for which the logP came out at 3.39.

Compound `CC(=O)N(C(=O)c1cn(C)nc1I)c1ccccc1C(C)CC(C)C` (stereo not drawn) [Compound 21] returned a logP of 3.68.

For the compound `Cn1cc(C(=O)Nc2ccccc2C#CC(C)(C)C)c(I)n1` [Compound 22], the log partition coefficient (logP) was determined as 3.79.

As to `CON=C(c1ccc(-c2ccccc2NC(=O)c2cn(C)nc2I)cc1)C(F)(F)F` [Compound 23], the logP is recorded as 3.70.

In the case of `CC(C)CCc1ccccc1NC(=O)c1cn(C)nc1I` [Compound 24], the logP amounted to 3.15.

The compound `C=C(c1ccccc1NC(=O)c1cn(C)nc1I)C(C)C` [Compound 25] came in with a log partition coefficient (logP) of 3.28.

Take `C=C(CC(C)(C)C)c1ccccc1NC(=O)c1cn(C)nc1I` [Compound 26]: the logP was determined as 3.82.

Regarding `CC(C)=C(C)c1ccccc1NC(=O)c1cn(C)nc1I` [Compound 27], the logP is 3.40.

In turn, `Cn1cc(C(=O)Nc2ccccc2-c2cccc(Cl)c2Cl)c(I)n1` [Compound 28] registered a logP of 3.34.

Take `Cn1cc(C(=O)Nc2ccccc2-c2ccc(C(F)(F)F)cc2Cl)c(I)n1` [Compound 30]: the log partition coefficient (logP) is 3.55.

On to `Cn1cc(C(=O)Nc2ccccc2-c2ccc(Br)c(Cl)c2)c(I)n1` [Compound 31], for which the lipophilicity (logP) is 3.45.

Compound `Cn1cc(C(=O)Nc2ccccc2-c2ccc(Br)cc2Cl)c(I)n1` [Compound 32] yielded a logP of 3.56.

The series is the same for the next values; noted with them: reversed-phase C18 HPLC column; pH 2.3; HPLC reversed-phase C18, 43° C.
Usually chromatographic logP stands for lipophilicity estimated from chromatographic retention. As to `Cn1cc(C(=O)O)c(I)n1` [3-iodo-1-methyl-1H-pyrazole-4-carboxylic acid], the chromatographic logP is 0.57.

On to `Cn1cc(C(=O)Nc2ccc(F)cc2-c2ccc(Cl)c(Cl)c2)c(I)n1` [Compound 6, N-(3′,4′-dichloro-5-fluoro-1,1′-biphenyl-2-yl)-3-iodo-1-methyl-1H-pyrazole-4-carboxamide], for which the chromatographic logP came out at 3.42.

In the case of `CCOC(=O)/C(C#N)=C\N(C)/N=C/c1ccccc1` [ethyl 3-(N′-benzylidene-N-methylhydrazino)-2-cyanoacrylate], the chromatographic logP is 2.31.

Turning to `CCOC(=O)c1cn(C)nc1N` [ethyl 3-amino-1-methyl-1H-pyrazole-4-carboxylate], the chromatographic logP was found to be 0.72.

`CCOC(=O)c1cn(C)nc1I` [ethyl 3-iodo-1-methyl-1H-pyrazole-4-carboxylate] gave a chromatographic logP of 1.74.

For the next series, the system named is Venturia inaequalis. The series is described as follows: Venturia test (apple)/protective. The format is in vivo. The note with it: 240 h, protective, application rate 100 g/ha, evaluation 10 days after inoculation, read-out: Efficacy in %. The procedure: (§1) To produce a suitable preparation of active compound, 1 part by weight of active compound is mixed with the stated amounts of solvents and emulsifier, and the concentrate is diluted with water to the desired concentration. To test for protective activity, young plants are sprayed with the preparation of active compound at the stated application rate. After the spray coating has dried on, the plants are inoculated with an aqueous conidia suspension of the apple pathogen Venturia inaequalis and then remain in an incubation cabin at about 20° C. and 100% relative atmospheric humidity for 1 day. The plants are then placed in a greenhouse at about 21° C. and a relative atmospheric humidity of about 90%. Evaluation is carried out 10 days after the inoculation. 0% means an efficacy which corresponds to that of the control, whereas an efficacy of 100% means that no infection is observed.
As for `CC(CC(C)(C)C)c1ccccc1NC(=O)c1cn(C)nc1I` (stereo not drawn) [drawing 69], the pest or weed control at 100 g/ha is 100%.

As to `CC(C)CC(C)c1ccccc1NC(=O)c1cn(C)nc1I` (stereo not drawn) [drawing 70], the pest or weed control at 100 g/ha turned out to be 100%.

Take `Cn1cc(C(=O)Nc2ccccc2-c2ccc(Cl)c(Cl)c2)c(I)n1` [drawing 71]: the pest or weed control at 100 g/ha came to 99%.

Consider `Cn1cc(C(=O)Nc2ccc(F)cc2-c2ccc(Cl)c(Cl)c2)c(I)n1` [drawing 72], for which the pest or weed control at 100 g/ha turned out to be 100%.

Turning to `Cn1cc(C(=O)Nc2ccccc2-c2ccc(F)c(Cl)c2)c(I)n1` [drawing 73], the pest or weed control at 100 g/ha was 100%.

Regarding `Cn1cc(C(=O)Nc2ccccc2-c2ccc(Br)cc2)c(I)n1` [drawing 74], the pest or weed control at 100 g/ha came out at 100%.

In the case of `Cn1cc(C(=O)Nc2ccccc2-c2ccc(Cl)c(F)c2)c(I)n1` [drawing 75], the pest or weed control at 100 g/ha stood at 100%.

In the case of `CCCO/N=C/c1ccc(-c2ccccc2NC(=O)c2cn(C)nc2I)cc1F` [drawing 76], the pest or weed control at 100 g/ha stood at 100%.

On to `Cc1ccc(-c2ccccc2NC(=O)c2cn(C)nc2I)cc1F` [drawing 77], for which the pest or weed control at 100 g/ha was 97%.

Turning to `Cn1cc(C(=O)Nc2ccccc2-c2ccc(C(F)(F)F)cc2)c(I)n1` [drawing 78], the pest or weed control at 100 g/ha turned out to be 94%.

With `Cn1cc(C(=O)Nc2ccccc2-c2ccc(C(F)(F)F)c(F)c2)c(I)n1` [drawing 79], the pest or weed control at 100 g/ha came out at 98%.

Take `Cn1cc(C(=O)Nc2ccccc2-c2ccc(Cl)cc2)c(I)n1` [drawing 80]: the pest or weed control at 100 g/ha amounted to 100%.

For the compound `Cn1cc(C(=O)Nc2ccccc2-c2ccc(I)cc2)c(I)n1` [drawing 81], the pest or weed control at 100 g/ha stood at 99%.

Turning to `CC(C)CCc1ccccc1NC(=O)c1cn(C)nc1I` [drawing 82], the pest or weed control at 100 g/ha is 98%.

Turning to `CC1CC(C)(C)c2cccc(NC(=O)c3cn(C)nc3I)c21` (stereo not drawn) [drawing 83], the pest or weed control at 100 g/ha was 100%.

Another series deals with Podosphaera leucotricha. The series can be described thus: Podosphaera test (apple)/protective. The format is in vivo. The note with it: 240 h, protective, application rate 100 g/ha, evaluation 10 days after inoculation, read-out: Efficacy in %. The procedure:
as §1, with “spore” for “conidia”, “apple mildew” for “apple”, “Podosphaera leucotricha.” for “Venturia inaequalis and then remain in an incubation cabin at about 20° C. and 100% relative atmospheric humidity for 1 day.”, “23°” for “21°”, “70%.” for “90%.”
On to `CC(CC(C)(C)C)c1ccccc1NC(=O)c1cn(C)nc1I` (stereo not drawn) [drawing 53], for which the pest or weed control at 100 g/ha is 100%.

Turning to `CC(C)CC(C)c1ccccc1NC(=O)c1cn(C)nc1I` (stereo not drawn) [drawing 54], the pest or weed control at 100 g/ha came out at 100%.

For the compound `Cn1cc(C(=O)Nc2ccccc2-c2ccc(Cl)c(Cl)c2)c(I)n1` [drawing 55], the pest or weed control at 100 g/ha is 99%.

`Cn1cc(C(=O)Nc2ccc(F)cc2-c2ccc(Cl)c(Cl)c2)c(I)n1` [drawing 56]: the pest or weed control at 100 g/ha stood at 100%.

For `Cn1cc(C(=O)Nc2ccccc2-c2ccc(F)c(Cl)c2)c(I)n1` [drawing 57], the pest or weed control at 100 g/ha was found to be 100%.

In the case of `Cn1cc(C(=O)Nc2ccccc2-c2ccc(Br)cc2)c(I)n1` [drawing 58], the pest or weed control at 100 g/ha came out at 100%.

As for `Cn1cc(C(=O)Nc2ccccc2-c2ccc(Cl)c(F)c2)c(I)n1` [drawing 59], the pest or weed control at 100 g/ha is 100%.

As for `CCCO/N=C/c1ccc(-c2ccccc2NC(=O)c2cn(C)nc2I)cc1F` [drawing 60], the pest or weed control at 100 g/ha amounted to 100%.

Consider `Cc1ccc(-c2ccccc2NC(=O)c2cn(C)nc2I)cc1F` [drawing 61], for which the pest or weed control at 100 g/ha came out at 100%.

On to `Cn1cc(C(=O)Nc2ccccc2-c2ccc(C(F)(F)F)cc2)c(I)n1` [drawing 62], for which the pest or weed control at 100 g/ha worked out at 88%.

In the case of `Cn1cc(C(=O)Nc2ccccc2-c2ccc(C(F)(F)F)c(F)c2)c(I)n1` [drawing 63], the pest or weed control at 100 g/ha turned out to be 99%.

`Cn1cc(C(=O)Nc2ccccc2-c2ccc(Cl)cc2)c(I)n1` [drawing 64]: the pest or weed control at 100 g/ha came out at 100%.

With `Cn1cc(C(=O)Nc2ccccc2-c2ccc(I)cc2)c(I)n1` [drawing 65], the pest or weed control at 100 g/ha worked out at 100%.

On to `CC(C)CCc1ccccc1NC(=O)c1cn(C)nc1I` [drawing 66], for which the pest or weed control at 100 g/ha is 98%.

Consider `CC1CC(C)(C)c2cccc(NC(=O)c3cn(C)nc3I)c21` (stereo not drawn) [drawing 67], for which the pest or weed control at 100 g/ha is 100%.

In the case of `CC(C)CC(C)c1cc(F)ccc1NC(=O)c1cn(C)nc1I` (stereo not drawn) [drawing 68], the pest or weed control at 100 g/ha is 100%.
